{"source": "ChEMBL document CHEMBL4477276", "about": "“Synthesis and aromatase inhibitory evaluation of 4-N-nitrophenyl substituted amino-4H-1,2,4-triazole derivatives” (Bioorg Med Chem, 2016)"}
{"target": "T1, Aromatase (Homo sapiens, UniProt P11511)", "T1 sequence (P11511 whole entry)": "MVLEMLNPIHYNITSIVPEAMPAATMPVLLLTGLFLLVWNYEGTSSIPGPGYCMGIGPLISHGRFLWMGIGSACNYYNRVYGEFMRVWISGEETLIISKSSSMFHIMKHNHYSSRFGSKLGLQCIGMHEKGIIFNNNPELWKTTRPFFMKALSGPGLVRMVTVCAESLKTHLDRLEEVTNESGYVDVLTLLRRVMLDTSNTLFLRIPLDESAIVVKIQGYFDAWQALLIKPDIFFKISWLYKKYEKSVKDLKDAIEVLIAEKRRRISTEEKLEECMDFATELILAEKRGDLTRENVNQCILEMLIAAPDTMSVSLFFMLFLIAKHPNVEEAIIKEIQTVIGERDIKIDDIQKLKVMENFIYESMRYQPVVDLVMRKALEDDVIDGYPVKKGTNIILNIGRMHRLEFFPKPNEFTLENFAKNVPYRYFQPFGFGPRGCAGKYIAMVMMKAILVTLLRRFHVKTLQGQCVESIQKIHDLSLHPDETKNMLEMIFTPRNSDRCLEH", "assay": "Inhibition of recombinant human aromatase using 7-methoxy-trifluoromethylcoumarin as substrate incubated for 30 mins by fluorescence microplate reader analysis", "units": {"IC50": "nM"}}
{"compound": "O=[N+]([O-])c1ccc(N(Cc2cccc(C(F)(F)F)c2)n2cnnc2)cc1Br", "IC50": 17.4}
{"compound": "O=[N+]([O-])c1ccc(N(Cc2ccc(C(F)(F)F)cc2)n2cnnc2)cc1Br", "IC50": 43.6}
{"compound": "O=[N+]([O-])c1ccc(N(Cc2ccccc2)n2cnnc2)cc1Br", "IC50": 39.8}
{"compound": "N#Cc1cccc(CN(c2ccc([N+](=O)[O-])c(-c3ccccc3)c2)n2cnnc2)c1", "IC50": 73.2}
{"compound": "O=[N+]([O-])c1ccc(Nn2cnnc2)cc1Br", "IC50": 90.7}
{"compound": "O=[N+]([O-])c1ccc(N(Cc2cccc(C(F)(F)F)c2)n2cnnc2)cc1-c1ccccc1", "IC50": 17.4}
{"compound": "O=[N+]([O-])c1ccc(N(Cc2ccc(C(F)(F)F)cc2)n2cnnc2)cc1-c1ccccc1", "IC50": 14.5}
{"compound": "O=[N+]([O-])c1cccc(CN(c2ccc([N+](=O)[O-])c(-c3ccccc3)c2)n2cnnc2)c1", "IC50": 19.7}
{"compound": "N#Cc1ccccc1CN(c1ccc([N+](=O)[O-])c(Br)c1)n1cnnc1", "IC50": 58.8}
{"compound": "N#Cc1cccc(CN(c2ccc([N+](=O)[O-])c(Br)c2)n2cnnc2)c1", "IC50": 57.6}
{"compound": "O=[N+]([O-])c1ccc(N(Cc2ccc(Cl)cc2)n2cnnc2)cc1Br", "IC50": 9.02}
{"compound": "O=[N+]([O-])c1cccc(CN(c2ccc([N+](=O)[O-])c(Br)c2)n2cnnc2)c1", "IC50": 12.1}
{"compound": "O=[N+]([O-])c1ccc(N(Cc2ccccc2)n2cnnc2)cc1-c1ccccc1", "IC50": 30.2}
